Reference: ChEMBL document CHEMBL5244281, “Tackling multidrug-resistant Staphylococcus aureus by natural products and their analogues acting as NorA efflux pump inhibitors” (Bioorg Med Chem, 2023)
Converted amounts (≈) assume the structure as drawn.

Tests used:
Staphylococcus aureus [1] = assay: Synergistic antibacterial activity against Staphylococcus aureus 1199B overexpressing NorA gene assessed as fractional inhibitory concentration index at 128 ug/ml in presence of norfloxacin; format: functional; conditions: dose 128 µg/ml
Staphylococcus aureus [2] = assay: Antibacterial activity against Staphylococcus aureus 1199B overexpressing NorA assessed as bacterial growth inhibition incubated for 18 hrs by MTT assay; format: functional
Staphylococcus aureus [3] = assay: Antibacterial activity against Staphylococcus aureus EMRSA-15 assessed as bacterial growth inhibition incubated for 18 hrs by MTT assay; format: functional
Staphylococcus aureus [4] = assay: Synergistic antibacterial activity against Staphylococcus aureus RN4220 assessed as fractional Inhibitory concentration index at 64 ug/ml in presence of norfloxacin by broth dilution method; format: functional; conditions: dose 64 µg/ml
Staphylococcus aureus [5] = assay: Antibacterial activity against tetracycline-resistant Staphylococcus aureus XU212 assessed as bacterial growth inhibition incubated for 18 hrs by MTT assay; format: functional
Staphylococcus aureus [6] = assay: Antibacterial activity against Staphylococcus aureus ATCC25923 assessed as bacterial growth inhibition incubated for 18 hrs by MTT assay; format: functional
Staphylococcus aureus [7] = assay: Antibacterial activity against Staphylococcus aureus EMRSA-16 assessed as bacterial growth inhibition incubated for 18 hrs by MTT assay; format: functional
Staphylococcus aureus [8] = assay: Synergistic antibacterial activity against Staphylococcus aureus 1199B overexpressing NorA assessed as fractional Inhibitory concentration index at 64 ug/ml in presence of norfloxacin by broth dilution method; format: functional; conditions: dose 64 µg/ml
[9] = target: T1, Quinolone resistance protein NorA (Staphylococcus aureus) (UniProt P0A0J7); conditions: 1199B, dose 64.0 µg/ml
T1 sequence (whole entry): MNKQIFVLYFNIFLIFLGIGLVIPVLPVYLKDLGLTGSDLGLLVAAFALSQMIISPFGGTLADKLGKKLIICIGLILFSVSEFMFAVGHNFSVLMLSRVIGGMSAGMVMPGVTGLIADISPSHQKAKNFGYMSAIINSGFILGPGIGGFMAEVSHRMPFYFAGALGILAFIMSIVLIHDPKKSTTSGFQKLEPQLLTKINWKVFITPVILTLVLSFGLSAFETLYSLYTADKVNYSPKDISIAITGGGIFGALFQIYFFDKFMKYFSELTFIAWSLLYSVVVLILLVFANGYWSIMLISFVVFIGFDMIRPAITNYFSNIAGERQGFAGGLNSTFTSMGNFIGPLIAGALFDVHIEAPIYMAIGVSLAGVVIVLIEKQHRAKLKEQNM

Staphylococcus aureus [10] = assay: Synergistic antibacterial activity against Staphylococcus aureus EMRSA-15 assessed as fractional Inhibitory concentration index at 64 ug/ml in presence of norfloxacin by broth dilution method; format: functional; conditions: dose 64 µg/ml
Staphylococcus aureus [11] = assay: Antibacterial activity against Staphylococcus aureus RN4220 assessed as bacterial growth inhibition incubated for 18 hrs by MTT assay; format: functional
Staphylococcus aureus [12] = assay: Antibacterial activity against Staphylococcus aureus ATCC 25923 assessed as bacterial growth inhibition incubated for 24 hrs by resazurin based microdilution test; format: functional
Escherichia coli [13] = assay: Antibacterial activity against Escherichia coli ATCC 25922 assessed as bacterial growth inhibition incubated for 24 hrs by resazurin based microdilution test; format: functional
Staphylococcus aureus [14] = assay: Antibacterial activity against norfloxacin resistant Staphylococcus aureus 1199B harboring NorA efflux pump gene assessed as bacterial growth inhibition incubated for 24 hrs by resazurin based microdilution test; format: functional
Staphylococcus aureus [15] = assay: Antibacterial activity against norfloxacin resistant Staphylococcus aureus IS-58 overexpressing TetK efflux pump gene assessed as bacterial growth inhibition incubated for 18 to 24 hrs by NCCLS protocol based microdilution method; format: functional; conditions: time 18-24 hrs
[16] = target: T1, Quinolone resistance protein NorA (Staphylococcus aureus); assay: Inhibition of NorA efflux pump in Staphylococcus aureus 1199B overexpressing NorA efflux pump assessed as reduction in EtBr MIC at 128 ug/ml using EtBr as substrate by resazurin based assay (Rvb= 32 ug/ml); conditions: dose 128.0 µg/ml
Staphylococcus aureus [17] = assay: Antibacterial activity against norfloxacin resistant Staphylococcus aureus 1199B overexpressing NorA efflux pump gene assessed as bacterial growth inhibition incubated for 18 to 24 hrs by NCCLS protocol based microdilution method; format: functional; conditions: time 18-24 hrs
Staphylococcus aureus [18] = assay: Antibacterial activity against norfloxacin resistant Staphylococcus aureus RN4220 overexpressing MsrA efflux pump gene assessed as bacterial growth inhibition incubated for 18 to 24 hrs by NCCLS protocol based microdilution method; format: functional; conditions: time 18-24 hrs
[19] = target: T1, Quinolone resistance protein NorA (Staphylococcus aureus); assay: Modulation of norfloxacin-induced inhibition of NorA efflux pump in Staphylococcus aureus 1199B overexpressing NorA efflux pump assessed as reduction in norfloxacin MIC at 1/4 times of MIC by resazurin based assay
Staphylococcus aureus [20] = assay: Antibacterial activity against norfloxacin resistant Staphylococcus aureus 1199B harboring NorA efflux pump assessed as bacterial growth inhibition incubated for 24 hrs by CLSI protocol based broth microdilution method; format: functional
Vibrio cholerae = assay: Antimicrobial activity against Vibrio cholerae assessed as bacterial growth inhibition incubated for 18 to 24 hrs by broth microdilution method; format: functional; conditions: time 18-24 hrs
Klebsiella pneumoniae = assay: Antimicrobial activity against Klebsiella pneumoniae assessed as bacterial growth inhibition incubated for 18 to 24 hrs by broth microdilution method; format: functional; conditions: time 18-24 hrs
Bacillus subtilis = assay: Antimicrobial activity against Bacillus subtilis assessed as bacterial growth inhibition incubated for 18 to 24 hrs by broth microdilution method; format: functional; conditions: time 18-24 hrs
Pseudomonas aeruginosa = assay: Antimicrobial activity against Pseudomonas aeruginosa assessed as bacterial growth inhibition incubated for 18 to 24 hrs by broth microdilution method; format: functional; conditions: time 18-24 hrs
Proteus vulgaris = assay: Antimicrobial activity against Proteus vulgaris assessed as bacterial growth inhibition incubated for 18 to 24 hrs by broth microdilution method; format: functional; conditions: time 18-24 hrs
Proteus mirabilis = assay: Antimicrobial activity against Proteus mirabilis assessed as bacterial growth inhibition incubated for 18 to 24 hrs by broth microdilution method; format: functional; conditions: time 18-24 hrs
Shigella dysenteriae = assay: Antimicrobial activity against Shigella dysenteriae assessed as bacterial growth inhibition incubated for 18 to 24 hrs by broth microdilution method; format: functional; conditions: time 18-24 hrs
Escherichia coli [21] = assay: Antimicrobial activity against Escherichia coli assessed as bacterial growth inhibition incubated for 18 to 24 hrs by broth microdilution method; format: functional; conditions: time 18-24 hrs
Staphylococcus aureus [22] = assay: Antimicrobial activity against Staphylococcus aureus assessed as bacterial growth inhibition incubated for 18 to 24 hrs by broth microdilution method; format: functional; conditions: time 18-24 hrs
Enterococcus faecalis = assay: Antimicrobial activity against Enterococcus faecalis assessed as bacterial growth inhibition incubated for 18 to 24 hrs by broth microdilution method; format: functional; conditions: time 18-24 hrs
Staphylococcus aureus [23] = assay: Antibacterial activity against methicillin-resistant Staphylococcus aureus 1199B overexpressing NorA efflux pump assessed as bacterial growth inhibition incubated for 24 hrs by resazurin based broth dilution method; format: functional
Staphylococcus aureus [24] = assay: Antibacterial activity against methicillin-resistant Staphylococcus aureus 1199 assessed as bacterial growth inhibition incubated for 24 hrs by resazurin based broth dilution method; format: functional
Staphylococcus aureus [25] = assay: Potentiation of erythromycin-induced inhibition of MsrA pump in Staphylococcus aureus RN4220/pUL5054 assessed as reduction in erythromycin MIC incubated for 24 hrs by Resazurin based assay (RVB= 645.08 ug/ml)
[26] = target: T1, Quinolone resistance protein NorA (Staphylococcus aureus); conditions: 1199B, time 24.0 hrs
[27] = target: T1, Quinolone resistance protein NorA (Staphylococcus aureus); conditions: 1199B, time 24.0 hrs; remark: listed apart in the source
Staphylococcus aureus [28] = conditions: IS-58, time 24.0 hrs
Staphylococcus aureus [29] = conditions: IS-58, time 24.0 hrs; remark: listed apart in the source
Staphylococcus aureus [30] = assay: Antibacterial activity against Staphylococcus aureus IS-58 overexpressing TetK pump assessed as bacterial growth inhibition incubated for 24 hrs by resazurin based broth dilution method; format: functional
Staphylococcus aureus [31] = assay: Antibacterial activity against methicillin-resistant Staphylococcus aureus RN4220/pUL5054 overexpressing MsrA efflux pump assessed as bacterial growth inhibition incubated for 24 hrs by resazurin based broth dilution method; format: functional
Staphylococcus aureus [32] = assay: Synergistic antibacterial activity against Staphylococcus aureus 1199B overexpressing NorA efflux pump assessed as fractional inhibitory concentration index in presence of norfloxacin by chequer board assay; format: functional

COc1cc(-c2oc3cc(OC)c(OC)c(O)c3c(=O)c2OC)ccc1O [CHRYSOSPLENOL B]
fractional inhibitory concentration index (FICI) (Staphylococcus aureus [1]): 0.375

COc1ccc(-c2cc(=O)c3c(O)cc(O)cc3o2)cc1O [DIOSMETIN]
MIC (Staphylococcus aureus [2]): 32 µg/mL (≈ 107 µM)
MIC (Staphylococcus aureus [3]): 32 µg/mL (≈ 107 µM)
fractional inhibitory concentration index (FICI) (Staphylococcus aureus [4]): 0.38
MIC (Staphylococcus aureus [5]): 32 µg/mL (≈ 107 µM)
MIC (Staphylococcus aureus [6]): 32 µg/mL (≈ 107 µM)
MIC (Staphylococcus aureus [7]): 8 µg/mL (≈ 26.6 µM)
fractional inhibitory concentration index (FICI) (Staphylococcus aureus [8]): 0.38
MIC [9]: 16 µg/mL (≈ 53.3 µM)
fractional inhibitory concentration index (FICI) (Staphylococcus aureus [10]): 0.09
MIC (Staphylococcus aureus [11]): 32 µg/mL (≈ 107 µM)

Oc1ccc2c(c1)O[C@H](c1ccc(O)c(O)c1)[C@@H](O)C2 [FISETINIDOL]
MIC (Staphylococcus aureus [12]): ≥ 1020 µg/mL
MIC (Escherichia coli [13]): ≥ 1020 µg/mL
MIC (Staphylococcus aureus [14]): ≥ 1020 µg/mL

COc1c2ccoc2c(OC)c2oc(=O)ccc12 [ISOPIMPINELLIN]
MIC (Staphylococcus aureus [15]): > 256 µg/mL
MIC [16]: 4 µg/mL
MIC (Staphylococcus aureus [17]): > 256 µg/mL
MIC (Staphylococcus aureus [18]): > 256 µg/mL

O=c1c(O)c(-c2cc(O)c(O)c(O)c2)oc2cc(O)cc(O)c12 [MYRICETIN]
MIC [19]: 256 µg/mL
MIC (Staphylococcus aureus [20]): 256 µg/mL (≈ 804 µM)

COc1cc(O)c2c(c1)O[C@H](c1ccccc1)CC2=O [PINOSTROBIN]
MIC (Vibrio cholerae): 24 µg/mL (≈ 88.8 µM)
MIC (Klebsiella pneumoniae): 18 µg/mL (≈ 66.6 µM)
MIC (Bacillus subtilis): 12 µg/mL (≈ 44.4 µM)
MIC (Pseudomonas aeruginosa): 32 µg/mL (≈ 118 µM)
MIC (Proteus vulgaris): 18 µg/mL (≈ 66.6 µM)
MIC (Proteus mirabilis): 32 µg/mL (≈ 118 µM)
MIC (Shigella dysenteriae): 12 µg/mL (≈ 44.4 µM)
MIC (Escherichia coli [21]): 12 µg/mL (≈ 44.4 µM)
MIC (Staphylococcus aureus [22]): 64 µg/mL (≈ 237 µM)
MIC (Enterococcus faecalis): 12 µg/mL (≈ 44.4 µM)

O=c1c(O)c(-c2ccc(O)c(O)c2)oc2cc(O)cc(O)c12 [QUERCETIN]
MIC (Staphylococcus aureus [23]): ≥ 1020 µg/mL
MIC (Staphylococcus aureus [24]): ≥ 1020 µg/mL
MIC (Staphylococcus aureus [25]): 512 µg/mL
MIC [26]: 12.7 µg/mL (≈ 42 µM)
MIC [27]: 128 µg/mL (≈ 424 µM)
MIC (Staphylococcus aureus [28]): 12.7 µg/mL (≈ 42 µM)
MIC (Staphylococcus aureus [29]): 128 µg/mL (≈ 424 µM)
MIC (Staphylococcus aureus [30]): 512 µg/mL (≈ 1690 µM)
MIC (Staphylococcus aureus [31]): ≥ 1020 µg/mL

C=C(C)[C@H](CC=C(C)C)Cc1c(O)cc(O)c2c1O[C@H](c1ccc(O)cc1O)CC2=O [SOPHORAFLAVANONE G]
fractional inhibitory concentration index (FICI) (Staphylococcus aureus [32]): 0.188
